Structures are written as SMILES.

Test [1] concerns HCV genotype 1a subgenomic replicon with NS3 resistance mutation R155K. Description: HCV replicon RNA replication assay, R155K 1a. It counts as cell-based, HCV genotype 1a (strain H77), Huh-7 cells. The conditions noted are these: Hepatitis C virus, Huh-7, 72 h, read-out: R155K 1a Ec50 (nM). For orientation: Replicon systems follow genome replication, usually without infectious particles.

Test [2] deals with HCV genotype 1b subgenomic replicon with NS3 resistance mutation D168V. Description: HCV replicon RNA replication assay, D168V 1b. In kind it is cell-based, HCV genotype 1b (Con-1), Huh-7 cells. The conditions noted are these: Hepatitis C virus, Huh-7, 72 h, read-out: D168V 1b Ec50 (nM).
Test [3] concerns HCV genotype 1a subgenomic replicon with NS3 resistance mutation D168V. Description: HCV replicon RNA replication assay, D168V 1a. It counts as cell-based, HCV genotype 1a (strain H77), Huh-7 cells. The conditions noted are these: Hepatitis C virus, Huh-7, 72 h, read-out: D168V 1a Ec50 (nM).
For test [4], the system named is HCVPV1a subgenomic replicon (wild type 1a). The test is described as follows: HCV replicon RNA replication assay, wild type 1a. It counts as cell-based, HCV genotype 1a (strain H77), Huh-7 cells. The conditions noted are these: Hepatitis C virus; Table 1; luciferase replicon, Huh-7, 72 h; read-out: WT 1a Ec50.
For test [5], the system named is HCVPV1b subgenomic replicon (wild type 1b). Description: HCV replicon RNA replication assay, wild type 1b. It counts as cell-based, HCV genotype 1b (Con-1), Huh-7 cells. The conditions noted are these: Hepatitis C virus; Table 1; luciferase replicon, Huh-7, 72 h; read-out: WT 1b Ec50.

Turning to `COc1ccc2c(O[C@@H]3C[C@H]4C(=O)N[C@]5(C(=O)NS(=O)(=O)C6CC6)C[C@H]5/C=C\CCCCC[C@H](NC(=O)c5ccc(C(C)(C)O)s5)C(=O)N4C3)cc(OC(C)C)nc2c1C` [Compound 1014, (2R,6S,12Z,13aS,14aR,16aS)-N-(cyclopropylsulfonyl)-6-({[5-(2-hydroxypropan-2-yl)thiophen-2-yl]carbonyl}amino)-2-{[7-methoxy-8-methyl-2-(propan-2-yloxy)quinolin-4-yl]oxy}-5,16-dioxo-1,2,3,6,7,8,9,10,11,13a,14,15,16,16a-tetradecahydrocyclopropa[e]pyrrolo[1,2-a][1,4]diazacyclopentadecine-14a(5H)-carboxamide], the half-maximal effective concentration (EC50) – broadly, the concentration that produces a half-maximal response – was determined as 8.5 nM in test [1]; 0.82 nM in test [2]; 6.3 nM in test [3]; 1.2 nM in test [4]; 1.2 nM in test [5].

Consider `Cc1c(O)ccc2c(O[C@@H]3C[C@H]4C(=O)N[C@]5(C(=O)NS(=O)(=O)C6(C)CC6)C[C@H]5/C=C\CCCCC[C@H](NC(=O)c5ccn(C)n5)C(=O)N4C3)cc(OC(C)C)nc12` [Compound 1015, (2R,6S,12Z,13aS,14aR,16aS)-2-{[7-hydroxy-8-methyl-2-(propan-2-yloxy)quinolin-4-yl]oxy}-N-[(1-methylcyclopropyl)sulfonyl]-6-{[(1-methyl-1H-pyrazol-3-yl)carbonyl]amino}-5,16-dioxo-1,2,3,6,7,8,9,10,11,13a,14,15,16,16a-tetradecahydrocyclopropa[e]pyrrolo[1,2-a][1,4]diazacyclopentadecine-14a(5H)-carboxamide], for which the EC50 in test [1] is 0.95 nM; in test [2], 0.96 nM; in test [3], 6.9 nM; in test [4], 0.96 nM; in test [5], 1.3 nM.

Consider `COc1c(F)ccc2c(O[C@@H]3C[C@H]4C(=O)N[C@]5(C(=O)NS(=O)(=O)C6CC6)C[C@H]5/C=C\CCCCC[C@H](NC(=O)c5ccn(C)n5)C(=O)N4C3)cc(OC(C)C)nc12` [Compound 1016, (2R,6S,12Z,13aS,14aR,16aS)-N-(cyclopropylsulfonyl)-2-{[7-fluoro-8-methoxy-2-(propan-2-yloxy)quinolin-4-yl]oxy}-6-{[(1-methyl-1H-pyrazol-3-yl)carbonyl]amino}-5,16-dioxo-1,2,3,6,7,8,9,10,11,13a,14,15,16,16a-tetradecahydrocyclopropa[e]pyrrolo[1,2-a][1,4]diazacyclopentadecine-14a(5H)-carboxamide], for which the EC50 in test [1] worked out at 7.9 nM; in test [2], 1 nM; in test [3] it was 3.9 nM; in test [4] it was 1.5 nM; in test [5], 1.1 nM.

With `COc1ccc2c(O[C@@H]3C[C@H]4C(=O)N[C@]5(C(=O)NS(=O)(=O)C6(C)CC6)C[C@H]5/C=C\CCCCC[C@H](NC(=O)c5ccn(CC(=O)N(C)C)n5)C(=O)N4C3)cc(OC(C)C)nc2c1C` [Compound 1017, (2R,6S,12Z,13aS,14aR,16aS)-6-[({1-[2-(dimethylamino)-2-oxoethyl]-1H-pyrazol-3-yl}carbonyl)amino]-2-{[7-methoxy-8-methyl-2-(propan-2-yloxy)quinolin-4-yl]oxy}-N-[(1-methylcyclopropyl)sulfonyl]-5,16-dioxo-1,2,3,6,7,8,9,10,11,13a,14,15,16,16a-tetradecahydrocyclopropa[e]pyrrolo[1,2-a][1,4]diazacyclopentadecine-14a(5H)-carboxamide], the EC50 in test [1] is 1.2 nM; in test [2], 1.5 nM; in test [3] it was 2.7 nM; in test [4] it was 1.1 nM; in test [5], 1.1 nM.

Regarding `CNC(=O)Cn1ccc(C(=O)N[C@H]2CCCCC/C=C\[C@@H]3C[C@@]3(C(=O)NS(=O)(=O)C3CC3)NC(=O)[C@@H]3C[C@@H](Oc4cc(OC(C)C)nc5c(C)c(OC)ccc45)CN3C2=O)n1` [Compound 1018, (2R,6S,12Z,13aS,14aR,16aS)-N-(cyclopropylsulfonyl)-2-{[7-methoxy-8-methyl-2-(propan-2-yloxy)quinolin-4-yl]oxy}-6-[({1-[2-(methylamino)-2-oxoethyl]-1H-pyrazol-3-yl}carbonyl)amino]-5,16-dioxo-1,2,3,6,7,8,9,10,11,13a,14,15,16,16a-tetradecahydrocyclopropa[e]pyrrolo[1,2-a][1,4]diazacyclopentadecine-14a(5H)-carboxamide], the EC50 came to 4.2 nM in test [1]; 2.4 nM in test [2]; 9.8 nM in test [3]; 2.7 nM in test [4]; 3.3 nM in test [5].

On to `CNC(=O)Cn1ccc(C(=O)N[C@H]2CCCCC/C=C\[C@@H]3C[C@@]3(C(=O)NS(=O)(=O)C3(C)CC3)NC(=O)[C@@H]3C[C@@H](Oc4cc(OC(C)C)nc5c(C)c(OC)ccc45)CN3C2=O)n1` [Compound 1019, (2R,6S,12Z,13aS,14aR,16aS)-2-{[7-methoxy-8-methyl-2-(propan-2-yloxy)quinolin-4-yl]oxy}-6-[({1-[2-(methylamino)-2-oxoethyl]-1H-pyrazol-3-yl}carbonyl)amino]-N-[(1-methylcyclopropyl)sulfonyl]-5,16-dioxo-1,2,3,6,7,8,9,10,11,13a,14,15,16,16a-tetradecahydrocyclopropa[e]pyrrolo[1,2-a][1,4]diazacyclopentadecine-14a(5H)-carboxamide], for which the EC50 in test [1] came out at 1.6 nM; in test [2], 1.8 nM; in test [3] it was 5.4 nM; in test [4], 2 nM; in test [5], 1.5 nM.

With `COc1ccc2c(O[C@@H]3C[C@H]4C(=O)N[C@]5(C(=O)NS(=O)(=O)C6(C)CC6)C[C@H]5/C=C\CCCCC[C@H](NC(=O)c5ccc(C(C)(C)O)s5)C(=O)N4C3)cc(OC(C)C)nc2c1C` [Compound 1020, (2R,6S,12Z,13aS,14aR,16aS)-6-({[5-(2-hydroxypropan-2-yl)thiophen-2-yl]carbonyl}amino)-2-{[7-methoxy-8-methyl-2-(propan-2-yloxy)quinolin-4-yl]oxy}-N-[(1-methylcyclopropyl)sulfonyl]-5,16-dioxo-1,2,3,6,7,8,9,10,11,13a,14,15,16,16a-tetradecahydrocyclopropa[e]pyrrolo[1,2-a][1,4]diazacyclopentadecine-14a(5H)-carboxamide], the EC50 turned out to be 2.4 nM in test [1]; 0.39 nM in test [2]; 3.7 nM in test [3]; 0.86 nM in test [4]; 0.66 nM in test [5].

Take `COc1c(F)ccc2c(O[C@@H]3C[C@H]4C(=O)N[C@]5(C(=O)NS(=O)(=O)C6(C)CC6)C[C@H]5/C=C\CCCCC[C@H](NC(=O)c5ccn(CCF)n5)C(=O)N4C3)cc(OC(C)C)nc12` [Compound 1021, (2R,6S,12Z,13aS,14aR,16aS)-6-({[1-(2-fluoroethyl)-1H-pyrazol-3-yl]carbonyl}amino)-2-{[7-fluoro-8-methoxy-2-(propan-2-yloxy)quinolin-4-yl]oxy}-N-[(1-methylcyclopropyl)sulfonyl]-5,16-dioxo-1,2,3,6,7,8,9,10,11,13a,14,15,16,16a-tetradecahydrocyclopropa[e]pyrrolo[1,2-a][1,4]diazacyclopentadecine-14a(5H)-carboxamide]: the EC50 in test [1] turned out to be 1.9 nM; in test [2] it was 0.53 nM; in test [3] it was 0.93 nM; in test [4] it was 0.34 nM; in test [5], 0.48 nM.
